IC50 data for 2 compounds are collected here from patent US8012974B2, “Pyrrolopyrazinyl urea kinase inhibitors” (Roche Palo Alto LLC, priority 2008, dated 2011).

One may read the IC50 as the midpoint of a concentration-inhibition curve.

For this assay, the target named is T1, JAK3: Recombinant human kinase domain (810-1124) (Homo sapiens, UniProt P52333).
T1 construct: JAK3: Recombinant human kinase domain (810-1124); made in house
As to the kind of experiment: Determination of IC50 of Janus Kinase (JAK) inhibition, JAK3, radioactive end-point assay with 33P-ATP. In kind it is biochemical. As to conditions: no additive; 0.1 nM JAK3, ATP 1.5 uM, peptide 50 uM, 20 minutes; read-out: Ic50 h-jak3-sf21-c: no additive.

T1 sequence (P52333 810-1124): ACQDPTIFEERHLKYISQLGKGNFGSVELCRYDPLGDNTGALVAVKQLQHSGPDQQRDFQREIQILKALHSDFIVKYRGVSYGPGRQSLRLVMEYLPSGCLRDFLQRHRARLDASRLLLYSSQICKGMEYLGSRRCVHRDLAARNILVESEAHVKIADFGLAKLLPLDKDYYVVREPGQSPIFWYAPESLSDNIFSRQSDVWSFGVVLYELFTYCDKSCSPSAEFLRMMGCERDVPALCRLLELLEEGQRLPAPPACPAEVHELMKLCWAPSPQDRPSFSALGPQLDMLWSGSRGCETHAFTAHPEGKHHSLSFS
Description: Determination of IC50 of Janus Kinase (JAK) Inhibition:
Enzymes and peptide substrate used are described below: • JAK1: Recombinant human kinase domain (866-1154) from Invitrogen (Cat # PV4774) • JAK3: Recombinant human kinase domain (810-1124) made in house by Roche Palo Alto • JAK2: Recombinant human kinase domain (808-1132) from Millipore (Cat # 14-640) • Substrate: N-terminally biotinylated 14-mer peptide derived from activation loop of JAK1 with sequence of the peptide substrate: Biotin-[sequence]
Assay conditions used are described below: • Assay Buffer: JAK Kinase Buffer: 50 mM Hepes [pH 7.2], 10 mM MgCl2, 1 mM DTT, 1 mg/ml BSA. The assay is carried out in this buffer. • Assay Format The kinase activity of all three JAK kinases is measured using a radioactive, end-point assay and with trace amounts of ^33P-ATP. The assays are carried out in 96-well polypropylene plates. Experimental Method:
All concentrations are final in the reaction mixture and all incubations are carried at room temperature. […] 1 wash with water. • 6) Washed plates are dried in a 60° C. oven for between 1 to 2 hours. • 7) 70 ul of Microscint 20 scintillation fluid is added to each well of filter plates and after at least 30 minutes of incubation, radioactive counts are measured in a Perkinelmer microplate scintillation counter.

`O=C(NCC1CCCCC1)Nc1cnc2[nH]ccc2n1` [Compound I-6, 1-Cyclohexylmethyl-3-(5H-pyrrolo[2,3-b]pyrazin-2-yl)-urea]: the IC50 came out at 326 nM.

Turning to `O=C(NCCc1ccccc1)Nc1cnc2[nH]ccc2n1` [Compound I-10, 1-Phenethyl-3-(5H-pyrrolo[2,3-b]pyrazin-2-yl)-urea], the IC50 was found to be 144 nM.
